*1 amine or outer side, *2 acyl side, *3 side chain or, on linkers, in order; H or OH if unused. Where a SMILES comes first, the peptide text is derived from it. [ ]: non-standard residue; d: D form. The star is where a group is joined. Cmp = 4-carboxymethyl-piperidine, O=C(CC1CCN([*:1])CC1)[*:2]; Octanoyl = CCCCCCCC(=O)*; Dap = NC[C@H](N)C(=O)O; Octyl = CCCCCCCC*
Columns and labels:
[1] = tested on: normal chow-fed C57BL/6J male mice; test: Effect on food intake in normal mice (HM-2 automated monitoring); format: in vivo, mouse; settings: for Accumulated FI at 6h: 300 nmol/kg s.c. once, light phase 0-6 h, modified protocol (food access re-opened 2 h after dosing); for Effects on FI during the dark period: modified protocol, 0-24 h monitoring (FIG. 2B)
Experimental: Normal chow-fed C57BL/6J male mice were used. The mice were kept in an automated food- and water-intake monitoring system (HM-2) which allows automated on-line measurements of accumulated food intake (FI) and other parameters. Food intake was monitored by the HM-2 system up to 24 h after dosing. The mice were kept 6 per cage, and each dosing group consisted of 6 animals.
In the initial experimental set-up with ghrelin as test compound, animals were allowed free access to food directly after treatment, and the resulting data for food intake are shown in FIG. 1A herein (vide infra).
In order to further investigate the “duration of action” of ghrelin and the other test compounds a new protocol was defined. In the modified protocol the gate to the food chambers was closed prior to dosing with vehicle or test compound and was re-opened 2 hours thereafter. The resulting data for food intake following dosing with ghrelin or vehicle are summarized in FIG. 1B (vide infra), while the corresponding data for food intake following dosing with each of the of the other four test compounds. (Compound 16, 22, 23 or 43 of the invention) or with vehicle are summarized in FIG. 2A (data for monitoring up to 6 hours after dosing) and FIG. 2B (data for monitoring up to 24 hours after dosing).

[2] = molecular target: human growth hormone secretagogue receptor type 1a (human, UniProt Q92847 1-366); test: cell-based or functional assay
Chain of human growth hormone secretagogue receptor type 1a (Q92847 whole entry): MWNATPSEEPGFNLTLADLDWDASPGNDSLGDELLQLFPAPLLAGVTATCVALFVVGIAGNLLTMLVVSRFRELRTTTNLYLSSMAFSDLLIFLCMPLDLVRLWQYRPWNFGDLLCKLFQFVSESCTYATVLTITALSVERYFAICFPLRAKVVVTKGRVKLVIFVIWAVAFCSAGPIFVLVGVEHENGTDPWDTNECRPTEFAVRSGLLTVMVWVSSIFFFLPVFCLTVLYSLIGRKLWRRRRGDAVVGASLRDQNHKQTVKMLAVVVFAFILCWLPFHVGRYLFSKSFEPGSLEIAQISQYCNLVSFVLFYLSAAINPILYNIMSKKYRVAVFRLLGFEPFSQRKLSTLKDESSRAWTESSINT

CCCCCCCC(=O)NC[C@H](NC(=O)[C@H](CO)NC(=O)[C@@H]1CCCN1)C(=O)N[C@@H](Cc1ccccc1)C(=O)N[C@@H](CC(C)C)C(=O)N[C@@H](CO)C(=O)N1CCC[C@H]1C(=O)N[C@@H](Cc1ccc(O)cc1)C(N)=O [Compound 42, H-PS-Dap(N-octanoyl)-FLSPY-NH2] (H-PS[Dap](Octanoyl)FLSPY-NH2)
Accumulated FI at 6h [1]: 0.2 ± 0.08 g

CCCCCCCCOC[C@H](NC(=O)[C@H](CO)NC(=O)[C@@H]1CCCN1)C(=O)N[C@@H](Cc1ccccc1)C(=O)N[C@@H](CC(C)C)C(=O)N[C@@H](CO)C(=O)N1CCC[C@H]1C(=O)N[C@@H](CCC(=O)O)C(=O)N[C@@H](Cc1c[nH]cn1)C(=O)N[C@@H](CO)C(=O)N[C@@H](CCCNC(=N)N)C(=O)N[C@H](C(=O)N[C@@H](CO)C(=O)N[C@@H](CO)C(=O)N[C@@H](CCCNC(=N)N)C(=O)N[C@@H](CCCCN)C(=O)N[C@@H](CCC(=O)O)C(=O)N[C@@H](CO)C(=O)N[C@@H](CO)C(=O)N[C@@H](CO)C(=O)N1CCC[C@H]1C(=O)N1CCC[C@H]1C(=O)N[C@@H](C)C(=O)N[C@@H](CCCCN)C(=O)N[C@@H](CC(C)C)C(=O)N[C@@H](CO)C(=O)N1CCC[C@H]1C(=O)N[C@@H](CCCNC(=N)N)C(N)=O)C(C)C [Compound 47] (H-PSS(Octyl)FLSPEHSRVSSRKESSSPPAKLSPR-NH2)
Accumulated FI at 6h [1]: 1.55 ± 0.16 g

CCCCCCCC(=O)NC[C@H](NC(=O)[C@H](CO)NC(=O)[C@@H]1CCCN1)C(=O)N[C@@H](Cc1ccccc1)C(=O)N[C@@H](CC(C)C)C(=O)N[C@@H](CO)C(=O)N1CCC[C@H]1C(=O)N[C@@H](CCC(=O)O)C(=O)N[C@@H](Cc1c[nH]cn1)C(=O)N[C@@H](CCC(N)=O)C(=O)N[C@@H](CCCNC(=N)N)C(=O)N[C@H](C(=O)N[C@@H](CCC(N)=O)C(=O)N[C@@H](CCC(N)=O)C(=O)N[C@@H](CCCNC(=N)N)C(=O)N[C@@H](CCCCN)C(=O)N[C@@H](CCC(=O)O)C(=O)N[C@@H](CO)C(=O)N[C@@H](CCCCN)C(=O)N[C@@H](CCCCN)C(=O)N1CCC[C@H]1C(=O)N1CCC[C@H]1C(=O)N[C@@H](C)C(=O)N[C@@H](CCCCN)C(=O)N[C@@H](CC(C)C)C(=O)N[C@@H](CCC(N)=O)C(=O)N1CCC[C@H]1C(=O)N[C@@H](CCCNC(=N)N)C(N)=O)C(C)C [Compound 22]
Accumulated FI at 6h [1]: 1.87 ± 0.23 g
Effects on FI during the dark period ([1]; 300 nmol/kg s.c.): significant effects

CCCCCCCCOC[C@H](NC(=O)[C@H](CO)NC(=O)[C@@H]1CCCN1)C(=O)N[C@@H](Cc1ccccc1)C(=O)N[C@@H](CC(C)C)C(=O)N[C@@H](CO)C(=O)N1CCC[C@H]1C(=O)N[C@@H](CCC(=O)O)C(=O)N[C@@H](Cc1c[nH]cn1)C(=O)N[C@@H](CO)C(=O)N[C@@H](CCCNC(=N)N)C(=O)N1CCC[C@H]1C(=O)N[C@@H](CO)C(=O)N[C@@H](CO)C(=O)N[C@@H](CCCNC(=N)N)C(=O)N1CCC[C@H]1C(=O)N[C@@H](CCC(=O)O)C(=O)N[C@@H](CO)C(=O)N[C@@H](CO)C(=O)N[C@@H](CO)C(=O)N1CCC[C@H]1C(=O)N1CCC[C@H]1C(=O)N[C@@H](C)C(=O)N[C@@H](CCCCN)C(=O)N[C@@H](CC(C)C)C(=O)N[C@@H](CO)C(=O)N1CCC[C@H]1C(=O)N[C@@H](CCCNC(=N)N)C(N)=O [Compound 50] (H-PSS(Octyl)FLSPEHSRPSSRPESSSPPAKLSPR-NH2)
Accumulated FI at 6h [1]: 0.19 ± 0.05 g

CCCCCCCC(=O)OC[C@H](NC(=O)[C@H](CO)NC(=O)CN)C(=O)N[C@@H](Cc1ccccc1)C(=O)N[C@@H](CC(C)C)C(=O)N[C@@H](CO)C(=O)N1CCC[C@H]1C(=O)N[C@@H](CCC(=O)O)C(=O)N[C@@H](Cc1c[nH]cn1)C(=O)N[C@@H](CCC(N)=O)C(=O)N[C@@H](CCCNC(=N)N)C(=O)N[C@H](C(=O)N[C@@H](CCC(N)=O)C(=O)N[C@@H](CCC(N)=O)C(=O)N[C@@H](CCCNC(=N)N)C(=O)N[C@@H](CCCCN)C(=O)N[C@@H](CCC(=O)O)C(=O)N[C@@H](CO)C(=O)N[C@@H](CCCCN)C(=O)N[C@@H](CCCCN)C(=O)N1CCC[C@H]1C(=O)N1CCC[C@H]1C(=O)N[C@@H](C)C(=O)N[C@@H](CCCCN)C(=O)N[C@@H](CC(C)C)C(=O)N[C@@H](CCC(N)=O)C(=O)N1CCC[C@H]1C(=O)N[C@@H](CCCNC(=N)N)C(=O)O)C(C)C [Compound 1, reference compound]
Effect on food intake (FI) ([1]; 300 nmol/kg s.c., access to food delayed for 2 h after administration (FIG. 1B)): essentially lost
Food intake (FI) compared to PBS treated controls ([1]; 300 nmol/kg s.c., free access to food immediately after dosing (FIG. 1A)): increased FI

CCCCCCCC(=O)NC[C@H](NC(=O)[C@H](CO)NC(=O)[C@@H]1CCCN1)C(=O)N[C@@H](Cc1ccccc1)C(=O)N[C@@H](CC(C)C)C(=O)N[C@@H](CO)C(=O)N1CCC[C@H]1C(=O)N[C@@H](CCC(=O)O)C(=O)N[C@@H](Cc1c[nH]cn1)C(=O)N[C@@H](CO)C(=O)N[C@@H](CCCNC(=N)N)C(=O)N[C@H](C(=O)N[C@@H](CO)C(=O)N[C@@H](CO)C(=O)N[C@@H](CCCNC(=N)N)C(=O)N[C@@H](CCCCN)C(=O)N[C@@H](CCC(=O)O)C(=O)N[C@@H](CO)C(=O)N[C@@H](CCCCN)C(=O)N[C@@H](CCCCN)C(=O)N1CCC[C@H]1C(=O)N1CCC[C@H]1C(=O)N[C@@H](C)C(=O)N[C@@H](CCCCN)C(=O)N[C@@H](CC(C)C)C(=O)N[C@@H](CO)C(=O)N1CCC[C@H]1C(=O)N[C@@H](CCCNC(=N)N)C(N)=O)C(C)C [Compound 23] (H-PS[Dap](Octanoyl)FLSPEHSRVSSRKESKKPPAKLSPR-NH2)
Effects on FI in the 0-6 h light period ([1]; 300 nmol/kg s.c., modified protocol (FIG. 2A)): moderate effects
Effects on FI during the dark period ([1]; 300 nmol/kg s.c.): significant effects

CCCCCCCCCCCCCCCC(=O)NCCCC[C@H](NC(=O)[C@H](CO)NC(=O)[C@H](CCC(=O)O)NC(=O)[C@H](CCCCN)NC(=O)[C@H](CCCNC(=N)N)NC(=O)[C@H](CCC(N)=O)NC(=O)[C@H](CCC(N)=O)NC(=O)[C@@H](NC(=O)[C@H](CCCNC(=N)N)NC(=O)[C@H](CCC(N)=O)NC(=O)[C@H](Cc1c[nH]cn1)NC(=O)[C@H](CCC(=O)O)NC(=O)[C@@H]1CCCN1C(=O)[C@H](CO)NC(=O)[C@H](CC(C)C)NC(=O)[C@H](Cc1ccccc1)NC(=O)[C@H](COCCCCCCCC)NC(=O)[C@H](CO)NC(=O)[C@@H]1CCCN1)C(C)C)C(=O)N[C@@H](CCCCN)C(=O)N1CCC[C@H]1C(=O)N1CCC[C@H]1C(=O)N[C@@H](C)C(=O)N[C@@H](CCCCN)C(=O)N[C@@H](CC(C)C)C(=O)N[C@@H](CCC(N)=O)C(=O)N1CCC[C@H]1C(=O)N[C@@H](CCCNC(=N)N)C(=O)O [Compound 16]
Accumulated FI at 6h [1]: 0.65 ± 0.1 g

B1: H-SS-S(O-octanoyl)-FLSPEHQRVQQRKESKKPPAKLQPR-OH (peptide)
peptide: H-SSS(Octanoyl)FLSPEHQRVQQRKESKKPPAKLQPR-OH
SMILES: CCCCCCCC(=O)OC[C@H](NC(=O)[C@H](CO)NC(=O)[C@@H](N)CO)C(=O)N[C@@H](Cc1ccccc1)C(=O)N[C@@H](CC(C)C)C(=O)N[C@@H](CO)C(=O)N1CCC[C@H]1C(=O)N[C@@H](CCC(=O)O)C(=O)N[C@@H](Cc1c[nH]cn1)C(=O)N[C@@H](CCC(N)=O)C(=O)N[C@@H](CCCNC(=N)N)C(=O)N[C@H](C(=O)N[C@@H](CCC(N)=O)C(=O)N[C@@H](CCC(N)=O)C(=O)N[C@@H](CCCNC(=N)N)C(=O)N[C@@H](CCCCN)C(=O)N[C@@H](CCC(=O)O)C(=O)N[C@@H](CO)C(=O)N[C@@H](CCCCN)C(=O)N[C@@H](CCCCN)C(=O)N1CCC[C@H]1C(=O)N1CCC[C@H]1C(=O)N[C@@H](C)C(=O)N[C@@H](CCCCN)C(=O)N[C@@H](CC(C)C)C(=O)N[C@@H](CCC(N)=O)C(=O)N1CCC[C@H]1C(=O)N[C@@H](CCCNC(=N)N)C(=O)O)C(C)C
EC50 (nM); Ca2+ induction in HEK293 cells stably expressing the human ghrelin receptor [2]: 0.385 nM

B2: H-Cmp-S(O-octanoyl)-FLSPEHQRVQQRKESKKPPAKLQPR-OH (peptide)
peptide: H-[Cmp]S(Octanoyl)FLSPEHQRVQQRKESKKPPAKLQPR-OH
SMILES: CCCCCCCC(=O)OC[C@H](NC(=O)CC1CCNCC1)C(=O)N[C@@H](Cc1ccccc1)C(=O)N[C@@H](CC(C)C)C(=O)N[C@@H](CO)C(=O)N1CCC[C@H]1C(=O)N[C@@H](CCC(=O)O)C(=O)N[C@@H](Cc1c[nH]cn1)C(=O)N[C@@H](CCC(N)=O)C(=O)N[C@@H](CCCNC(=N)N)C(=O)N[C@H](C(=O)N[C@@H](CCC(N)=O)C(=O)N[C@@H](CCC(N)=O)C(=O)N[C@@H](CCCNC(=N)N)C(=O)N[C@@H](CCCCN)C(=O)N[C@@H](CCC(=O)O)C(=O)N[C@@H](CO)C(=O)N[C@@H](CCCCN)C(=O)N[C@@H](CCCCN)C(=O)N1CCC[C@H]1C(=O)N1CCC[C@H]1C(=O)N[C@@H](C)C(=O)N[C@@H](CCCCN)C(=O)N[C@@H](CC(C)C)C(=O)N[C@@H](CCC(N)=O)C(=O)N1CCC[C@H]1C(=O)N[C@@H](CCCNC(=N)N)C(=O)O)C(C)C
EC50 (nM); Ca2+ induction in HEK293 cells stably expressing the human ghrelin receptor [2]: 0.558 nM

B3: H-PS-S(O-octyl)-FLSPEHSRVSSRKESKKPPAKLSPR-NH2 (peptide)
peptide: H-PSS(Octyl)FLSPEHSRVSSRKESKKPPAKLSPR-NH2
SMILES: CCCCCCCCOC[C@H](NC(=O)[C@H](CO)NC(=O)[C@@H]1CCCN1)C(=O)N[C@@H](Cc1ccccc1)C(=O)N[C@@H](CC(C)C)C(=O)N[C@@H](CO)C(=O)N1CCC[C@H]1C(=O)N[C@@H](CCC(=O)O)C(=O)N[C@@H](Cc1c[nH]cn1)C(=O)N[C@@H](CO)C(=O)N[C@@H](CCCNC(=N)N)C(=O)N[C@H](C(=O)N[C@@H](CO)C(=O)N[C@@H](CO)C(=O)N[C@@H](CCCNC(=N)N)C(=O)N[C@@H](CCCCN)C(=O)N[C@@H](CCC(=O)O)C(=O)N[C@@H](CO)C(=O)N[C@@H](CCCCN)C(=O)N[C@@H](CCCCN)C(=O)N1CCC[C@H]1C(=O)N1CCC[C@H]1C(=O)N[C@@H](C)C(=O)N[C@@H](CCCCN)C(=O)N[C@@H](CC(C)C)C(=O)N[C@@H](CO)C(=O)N1CCC[C@H]1C(=O)N[C@@H](CCCNC(=N)N)C(N)=O)C(C)C
EC50 (nM); Ca2+ induction in HEK293 cells stably expressing the human ghrelin receptor [2]: 0.48 nM

— patent US9657062B2, “Ghrelin analogues” (Zealand Pharma A/S, priority 2012, dated 2017)
